{"source": "patent US11926846B2", "about": "“Hydroxyurea to enhance sperm cells” (Meharry Medical College, priority 2017, dated 2024)", "key": {"human sperm [1]": {"test_system": "human sperm", "assay": "Overall sperm motility after 24 hour culture with HU at HIV-suppressing concentrations (Working Example 2)", "type": "cell-based", "conditions": "HTF-buffer, 37° C., control 70.3", "description": "Normal human semen was collected in 15 mL conical centrifuge tubes. Highly motile (i.e., Grade a) sperm were isolated and collected from the semen. The isolated highly motile sperm were washed in HTF medium containing 0.5% BSA (HTF-HEPES; pH 7.4) by centrifugation and suspended in bicarbonate (25 mM)-buffered HTF containing 0.5% (5 mg/ml) BSA (36; pH 7.4). Subsequently, each sperm suspension was incubated at 37° C. in an atmosphere of 5.0% CO2 in humidified air until aliquoted into the different treatment groups: a control group and a hydroxyurea processed group.\n(§1) The control group was cultured in HTF-buffer containing 0 μg HU/mL at 37° C. in an atmosphere of 5.0% CO2 in humidified air for 24 hours. After the 24 hour culture, the control sperm were evaluated for pattern and degree of motility.\nThe hydroxyurea processed groups were cultured in HTF-buffer in two groups containing different concentrations of HU: (1) 1.0 mM HU and (2) 2.0 mM HU. The groups were cultured at 37° C. in an atmosphere of 5.0% CO2 in humidified air for 24 hours. After the 24 hour culture, the hydroxyurea processed sperm were evaluated for pattern and degree of motility.\nThus, it had been previously believed that HU was an unsuitable agent to suppress HIV replication and/or activation in semen, or to reduce the risk of HIV transmission, via HU treatment of reproductive cells."}, "rats [2]": {"test_system": "rats", "conditions": "single dose; cited from earlier work"}, "human sperm [3]": {"test_system": "human sperm", "assay": "Sperm motility after 24 hour culture in HTF-buffer containing HU (Working Example 1)", "type": "cell-based", "conditions": "18 μg HU/mL, 37° C.", "description": "Human sperm was processed with HU to show enhanced motility over human sperm not processed with HU. Normal human semen was collected in 15 mL conical centrifuge tubes. Highly motile (i.e., Grade a) sperm were isolated and collected from the semen. The isolated highly motile sperm were washed in an HTF medium (HTF-HEPES; pH 7.4) containing 0.5% Bovine Serum Albumin (“BSA”) by centrifugation and suspended in bicarbonate (25 mM)-buffered HTF containing 0.5% (5 mg/ml) BSA (36; pH 7.4). Subsequently, each sperm suspension was incubated at 37° C. in an atmosphere of 5.0% CO2 in humidified air until aliquoted into the different treatment groups: a control group and a hydroxyurea processed group.\nas §1\nThe hydroxyurea processed group was cultured in HTF-buffer containing 18 μg HU/mL at 37° C. in an atmosphere of 5.0% CO2 in humidified air for 24 hours. After the 24 hour culture, the hydroxyurea processed sperm were evaluated for pattern and degree of motility. […] The percentage of motile spermatozoa was calculated by multiplying the ratio of motile to 100 spermatozoa counted by 100.\nThe progressive motility of the control group sperm was higher (P<0.001; based on paired t-test comparison) than the progressive motility of the hydroxyurea processed group sperm. […] On the other hand, most of the sperm cells in the control buffer remained in a progressive motility state (motility pattern observed among sperm cells that have not acquired the ability to fertilize mature eggs). These findings are clinically significant, as progressive sperm motility is a determinant of ability of spermatozoa to penetrate cervical mucus on towards migration to the fertilization site (fallopian tubes), while that for hyperactive sperm motility (capacitation) is the motion pattern characteristic of spermatozoa that have attained the ability to fertilize mature eggs."}, "[4]": {"test_system": "human spermatozoa in semen samples", "assay": "Sperm motility after cooling in freezing buffer with HU before cryopreservation (Working Example 3)", "type": "cell-based", "description": "(§2) Post semen analysis was conducted of discarded and de-identified semen samples from Ovation Fertility Center that met the World Health Organization (WHO) criteria for normal semen samples. Those semen samples that met the WHO criteria for normal were divided into two halves. One half was subjected to freezing with TEST-Yolk buffer (freezing buffer [FB]; Irvine Scientific, CA) containing 12% glycerol as cryoprotectant (control group). The remaining half of each sample was frozen with experimental freezing buffer composed of FB+HU (Sigma Aldridge, St. Louis; treatment group). Both control and experimental buffers were added on a 1:1 ratio to respective semen samples (v/v) in a dropwise manner. The final glycerol concentration in the semen+FB was 6%, and the final HU concentration in semen+experimental freezing buffer was 1 μM to use a concentration of HU that is effective in inhibiting HIV replication. Pre-freeze sperm motility was determined for each sample prior to initiating the cooling step of the freezing procedure. Samples in the control and treatment group were cooled for 24 hours to slow the HU-induced vigorously motile cells in the treatment group. Subsequently, post cooling motility was determined prior to liquid nitrogen vapor phase freezing for 30 minutes before being stored immersed in liquid nitrogen (LN) for at least 24 hours before being thawed for analysis. Samples were thawed at room temperature for 35 minutes prior to motility analysis."}, "[5]": {"test_system": "human spermatozoa in semen samples", "assay": "Post-cool and post-thaw sperm motility after cryopreservation in freezing buffer with HU (Working Example 4)", "type": "cell-based", "conditions": "FB+HU, final HU 1 μM, listed as HU", "description": "as §2, with “half” for “half was”, “6%” for “6%,”, “arm” for “step”, “HU induced” for “HU-induced”, “LN” for “liquid nitrogen (LN)”, “Samples were thawed at room temperature for 35 minutes prior to motility analysis.” left out"}, "rats [6]": {"test_system": "rats", "assay": "Oral LD50 in rats", "conditions": "rat oral LD50 divided by 1000"}}, "note": "Several values for one entry are separate records, joined by “and”; a condition that tells them apart may be missing. Equal values may be shown once.", "data": [{"molecule": "NC(=O)NO", "note": "[hydroxyurea, Hydroxyurea]", "values": [{"measurement": "overall motility", "setting": "human sperm [1]; 1.0 mM HU", "value": 66.6}, {"measurement": "overall motility", "setting": "human sperm [1]; 2.0 mM HU", "value": 68.3}, {"measurement": "oral LD50", "setting": "rats [2]", "value": 5780, "unit": "mg/kg"}, {"measurement": "overall percentage motility (progressively + hyperactively motile spermatozoa)", "setting": "human sperm [3]; 5.0% CO2, 24 hours, control 75.4", "value": 79.0, "unit": "%"}, {"measurement": "hyperactive motility", "setting": "human sperm [3]; 24 hours, control 23.0", "value": 41.3, "unit": "%"}, {"measurement": "progressive sperm motility", "setting": "human sperm [3]; 24 hours, control 51.7±10.2", "value": 37.7, "unit": "%"}, {"measurement": "level of overall spermatozoa with motility (FIGS. 2A-2H)", "setting": "[4]; HU treated, video stills over about 9 seconds, control low level", "value": "moderate to high level"}, {"measurement": "motility maintained of the initial population of motile spermatozoa (pre-freeze)", "setting": "[4]; freezing medium supplemented with HU, control 28-45%", "value": "76-84%"}, {"measurement": "longevity among post-thaw spermatozoa versus control group", "setting": "[4]; frozen in FB+HU, post-thaw", "value": "higher"}, {"measurement": "mean of the post-cool motility relative to post cool motility (survival of cooling process in percentage)", "setting": "[4]; mean of seven HU treated samples, control 50.71", "value": 71.91, "unit": "%"}, {"measurement": "Post-thaw Motility (HU; %)", "setting": "[5]; liquid nitrogen at least 24 hours, thawed 35 minutes at room temperature, first figure of cell", "value": "44% and 50% and 32%"}, {"measurement": "Post-thaw Survival Relative to Post-cool Motility (HU; %)", "setting": "[5]; post-thaw, second figure of cell", "value": "71% and 76% and 49%"}, {"measurement": "maximum effective dose (rough maximum safe dose for humans)", "setting": "rats [6]", "value": "≤ 5.78", "unit": "mg/kg"}]}]}
